We go through seven compounds from patent US8211899B2, “Artificial nucleic acid bases and their use in base pairing natural nucleic acid bases” (Inter-University Research Institute Corporation National …, priority 2005, dated 2012).

The nature of data set [1]: solubility test in solvents at 1 to 100 mM. The format is physicochemical. To be noted: for solubility: warmed to 50° C. and cooled to 27° C.; for solubility in water and organic solvents: water and various organic solvents. Here is the method: The solubility of PPT obtained in Example 1 was examined. For comparison, the solubility of a PPT derivative, wherein R is H in chemical formula I (hereinafter, referred to as “PPT(H)”). For the solubility test, each solvent listed in Table I was used, and the concentration of solute was 1 to 100 mM. The solution with respective concentrations was warmed once to 50° C. and cooled to 27° C. The solution with residues was referred to as “insoluble”, in the contrast the solution without residues was referred to as “soluble”. The concentration of the buffer was 100 mM and the pH was 7.0.

For the next data set, the system named is 1-methylcytosine (C). Put plainly: test of base pair formation by UV absorbance change versus mixing ratio. The format is binding. To be noted: mixture with C, total 7.5 mmol/L, mol ratio 0:10 to 10:0, anhydrous DMSO, 25° C., 12 hr. The protocol:
(§1) The test of base pair formation was carried out in the following way. […] The mixture was dissolved at 25° C. in anhydrous dimethyl sulfoxide (DMSO), which had been removed oxygen by freezing-degas method, dissolved argon gas, mixed with DMSO solution of substrates prepared before hand, and allowed to leave for overnight (12 hr.). Then, the change of absorbance in ultraviolet wavelength region was measured according to the following conditions: • (1) The measuring equipment, JASCO […]IAL NO. C02951260; • (2) The thermal controller, JASCO PSC-498T; • (3) The cell, GL Science Type: AB20-SQ-0.1 (Optical path is 0.1 mm); • (4) The cell adopter, CAS-10-1; • (5) The measured wavelength region, 200-350 nm. The absorbance changed in accordance with the mixing ratios. Plot of the absorbance change versus to mixing ratios at a wavelength, where the absorbance change was observed, are shown in FIG. 2. The absorbance of substrates is proportional to a mixing ratio of the substrates (Beer's law) in the case of no interaction between substrates.

Another data set relates to 9-methyladenine (A). The description is as above. The data set is classed as binding. To be noted: mixture with A, total 7.5 mmol/L, mol ratio 0:10 to 10:0, anhydrous DMSO, 25° C., 12 hr. Here is the method: as §1
The next data set relates to 9-methylguanine (G). The description is as above. The format is binding. Particulars: mixture with G, total 7.5 mmol/L, mol ratio 0:10 to 10:0, anhydrous DMSO, 25° C., 12 hr. Here is the method: as §1
A further data set has as its system 1-methylthymine (T). The data set is described as above. The format is binding. Particulars: mixture with T, total 7.5 mmol/L, mol ratio 0:10 to 10:0, anhydrous DMSO, 25° C., 12 hr. The protocol:
The test of base pair formation was carried out in the following way. The concentration of the mixture of PPT and one of respective N-methylated natural nucleic acid bases (1-methylcytosine (herein after, referred to as “C”), 1-methylthymine (hereinafter, referred to as “T”). 9-methyladenine (hereinafter, referred to as “A”), and 9-methylguanine (hereinafter, referred to as “G”)) was kept constant at 7.5 mmol/L and the ratio (mol ratio) of the mixture was varied from 0:10 to 10:0. The mixture was dissolved at 25° C. in anhydrous dimethyl sulfoxide (DMSO), which had been removed oxygen by freezing-degas method, dissolved argon gas, mixed with DMSO solution of substrates prepared before hand, and allowed to leave for overnight (12 hr.). Then, the change of absorbance in ultraviolet wavelength region was measured according to the following conditions: • (1) The measuring equipment, JASCO V-550 SERIAL NO. C02951260; • (2) The thermal controller, JASCO PSC-498T; • (3) The cell, GL Science Type: AB20-SQ-0.1 (Optical path is 0.1 mm); • (4) The cell adopter, CAS-10-1; • (5) The measured wavelength region, 200-350 nm.
The absorbance of substrates is proportional to a mixing ratio of the substrates (Beer's law) in the case of no interaction between substrates.
For comparison, the base pair formation was examined for A and T, and G and T similarly to Example 3.

Setting [2] is: TBE buffer 100 mM pH 7.0, concentration 1 mM.
Where [3] appears, read: TBE buffer 100 mM pH 7.0, concentration 100 mM.
The mark [4] stands for this setting: phosphate buffer 100 mM pH 7.0, concentration 1 mM.
Setting [5] is: phosphate buffer 100 mM pH 7.0, concentration 100 mM.
The mark [6] stands for this setting: DMF, 27 °C, organic solvent or mixture, thermodynamic from solid, DMF, concentration 1 mM, read-out: solubility.
The mark [7] stands for this setting: DMF, 27 °C, organic solvent or mixture, thermodynamic from solid, DMF, concentration 100 mM, read-out: solubility.
[8] abbreviates: DMSO, 27 °C, organic solvent or mixture, thermodynamic from solid, DMSO, concentration 1 mM, read-out: solubility.
The mark [9] stands for this setting: DMSO, 27 °C, organic solvent or mixture, thermodynamic from solid, DMSO, concentration 100 mM, read-out: solubility.
[10] abbreviates: TBE buffer, 27 °C, pH 7, aqueous buffer, thermodynamic from solid, TBE buffer 100 mM pH 7.0, concentration 1 mM, read-out: solubility.
The mark [11] stands for this setting: TBE buffer, 27 °C, pH 7, aqueous buffer, thermodynamic from solid, TBE buffer 100 mM pH 7.0, concentration 100 mM, read-out: solubility.
The mark [12] stands for this setting: methanol, 27 °C, organic solvent or mixture, thermodynamic from solid, methanol, concentration 1 mM, read-out: solubility.
The mark [13] stands for this setting: methanol, 27 °C, organic solvent or mixture, thermodynamic from solid, methanol, concentration 100 mM, read-out: solubility.
Setting [14] is: phosphate buffer, 27 °C, pH 7, aqueous buffer, thermodynamic from solid, phosphate buffer 100 mM pH 7.0, concentration 1 mM, read-out: solubility.
Setting [15] is: phosphate buffer, 27 °C, pH 7, aqueous buffer, thermodynamic from solid, phosphate buffer 100 mM pH 7.0, concentration 100 mM, read-out: solubility.
Setting [16] is: water, 27 °C, water, thermodynamic from solid, water, concentration 1 mM, read-out: solubility.
Where [17] appears, read: water, 27 °C, water, thermodynamic from solid, water, concentration 100 mM, read-out: solubility.

Where two headings read alike, the source gives them in different places.

In the case of `O=c1[nH]c(=O)c2c(=O)[nH]c(=O)n(CCO)c2[nH]1` [CH2CH2OH], the solubility (as a rule, the dissolved amount per volume that the medium holds) in data set [1] (DMF, concentration 1 mM) is recorded as “S (S: soluble)”; in data set [1] (DMF, concentration 100 mM) it was “Ins (Ins: insoluble)”; in data set [1] (DMSO, concentration 1 mM), “S (S: soluble)”; in data set [1] (DMSO, concentration 100 mM), “Ins (Ins: insoluble)”; in data set [1] (setting [2]) it was “S (S: soluble)”; in data set [1] (setting [3]), “Ins (Ins: insoluble)”. Also, the solubility entry in data set [1] (methanol, concentration 1 mM) was “S (S: soluble)”; in data set [1] (methanol, concentration 100 mM), “Ins (Ins: insoluble)”; in data set [1] (setting [4]) it was “S (S: soluble)”; in data set [1] (setting [5]), “Ins (Ins: insoluble)”; in data set [1] (water, concentration 1 mM), “S (S: soluble)”; in data set [1] (water, concentration 100 mM), “Ins (Ins: insoluble)”.

For the compound `CC(C)(C)[Si](OCCn1c(=O)[nH]c(=O)c2c(=O)[nH]c(=O)[nH]c21)(c1ccccc1)c1ccccc1` [PPT, 1-[2-(t-butyl-diphenyl-silyloxy)-ethyl]-1H, 8H-pyrimido [4,5-d]pyrimidine-2,4,5,7-tetraone], the solubility in data set [1] (setting [6]) was more than 1 mM; in data set [1] (setting [7]) it was more than 1 mM; in data set [1] (setting [8]) it was more than 1 mM; in data set [1] (setting [9]) it was more than 1 mM; in data set [1] (setting [10]), more than 1 mM; in data set [1] (setting [11]), less than 100 mM. For the same compound, the solubility in data set [1] (setting [12]) is more than 1 mM; in data set [1] (setting [13]) it was less than 100 mM; in data set [1] (setting [14]), more than 1 mM; in data set [1] (setting [15]) it was less than 100 mM; in data set [1] (setting [16]), more than 1 mM; in data set [1] (setting [17]), less than 100 mM. The “base pair formation: deviation of absorbance plot from the linear line by Beer's law” value (“base pair formation: deviation” below) in the data set on 1-methylcytosine (C), in the data set on 9-methyladenine (A), in the data set on 9-methylguanine (G) and in the data set with 1-methylthymine (T) was “large deviation from the linear line” in each case.

For `Cn1cnc2c(N)ncnc21` [A, 9-methyladenine], the “base pair formation: deviation” value in the data set on 1-methylthymine (T) is given as “deviation from the linear line”.

Consider `O=c1[nH]c(=O)c2c(=O)[nH]c(=O)[nH]c2[nH]1` [PPT(H), pyrimido [4,5-d]pyrimidine-2,4,5,7-tetraone, reference compound], for which the solubility in data set [1] (setting [6]), in data set [1] (setting [7]), in data set [1] (setting [8]), in data set [1] (setting [9]), in data set [1] (setting [10]) and in data set [1] (setting [11]) was less than 100 mM in each case. Further, the solubility in data set [1] (setting [12]), in data set [1] (setting [13]), in data set [1] (setting [14]), in data set [1] (setting [15]), in data set [1] (setting [16]) and in data set [1] (setting [17]) was less than 100 mM throughout. The “solubility in water and organic solvents” value in data set [1] is on record as “insoluble”; in data set [1] (listed as unsubstituted form of pyrimido [4,5-d] pyrimidine -2,4,5,7-tetraone) it was “extremely low”.

With `C=CCn1c(=O)[nH]c(=O)c2c(=O)[nH]c(=O)[nH]c21` [CH2CH═CH2], the solubility entry is “S (S: soluble)” in data set [1] (DMF, concentration 1 mM); “S (S: soluble)” in data set [1] (DMF, concentration 100 mM); “S (S: soluble)” in data set [1] (DMSO, concentration 1 mM); “S (S: soluble)” in data set [1] (DMSO, concentration 100 mM); “S (S: soluble)” in data set [1] (setting [2]); “Ins (Ins: insoluble)” in data set [1] (setting [3]). For the same compound, the solubility entry in data set [1] (methanol, concentration 1 mM) is on record as “S (S: soluble)”; in data set [1] (methanol, concentration 100 mM), “Ins (Ins: insoluble)”; in data set [1] (setting [4]) it was “S (S: soluble)”; in data set [1] (setting [5]) it was “Ins (Ins: insoluble)”; in data set [1] (water, concentration 1 mM), “S (S: soluble)”; in data set [1] (water, concentration 100 mM), “Ins (Ins: insoluble)”.

With `Cn1cnc2c(=O)[nH]c(N)nc21` [G, 9-methylguanine], the “base pair formation: deviation” value in the data set on 1-methylthymine (T) is given as “no deviation from the linear line”.

With `O=C(O)Cn1c(=O)[nH]c(=O)c2c(=O)[nH]c(=O)[nH]c21` [CH2COOH], the solubility entry in data set [1] (DMF, concentration 1 mM) is “S (S: soluble)”; in data set [1] (DMF, concentration 100 mM), “Ins (Ins: insoluble)”; in data set [1] (DMSO, concentration 1 mM) it was “S (S: soluble)”; in data set [1] (DMSO, concentration 100 mM), “Ins (Ins: insoluble)”; in data set [1] (setting [2]) it was “S (S: soluble)”; in data set [1] (setting [3]), “S (S: soluble)”. Moreover, the solubility result in data set [1] (methanol, concentration 1 mM) was “S (S: soluble)”; in data set [1] (methanol, concentration 100 mM), “Ins (Ins: insoluble)”; in data set [1] (setting [4]) it was “S (S: soluble)”; in data set [1] (setting [5]), “S (S: soluble)”; in data set [1] (water, concentration 1 mM) it was “S (S: soluble)”; in data set [1] (water, concentration 100 mM), “S (S: soluble)”.
